Test results taken from patent US20250319206A1, “CRISPR/CAS GENE EDITING OF NEH4 AND/OR NEH5 DOMAINS IN NRF2” (Christina Care Gene Editing Institute, Inc., priority 2024, published 2025).

What was measured:
[1] = system: NRF2 downstream target genes (NQO1, HMOX1, GCLC); assay: qPCR gene expression analysis of NRF2 and downstream targets in FaDu cells; type: cell-based, Human; conditions: for NQO1 expression (qPCR): vs wildtype unedited cells, without cisplatin exposure
Method: (§1) Total RNA was isolated from edited cells using TRIzol reagent and PureLink RNA Mini Kit (Thermo Fisher Scientific, Waltham, MA). Reverse transcription was conducted using the Applied Biosystems High-Capacity RNA-to-cDNA kit (Thermo Fisher Scientific, Waltham, MA). The cDNA was used as the template in the qPCR amplification of GAPDH (Fwd 5′ […]3′ (SEQ ID NO:76), Rev 5′[…]3′ (SEQ ID NO:77)), NRF2 (Fwd 5′[…]3′ (SEQ ID NO:78), Rev 5′[…]3′ (SEQ ID NO:79)), NQO1 (Fwd 5′[…]3′ (SEQ ID NO:80), Rev 5′[…]3′ (SEQ ID NO:81)), HMOX1 (Fwd 5′ […]3′ (SEQ ID NO:82), Rev 5′[…]3′ (SEQ ID NO:83)) and GCLC (Fwd 5′[…]3′ (SEQ ID NO:84), Rev 5′ […]3′ (SEQ ID NO:85)) transcripts using the SsoAdvanced universal SYBR Green Supermix (BioRad, Hercules, CA). The experiment was conducted at least twice with all samples run in duplicate at minimum. Relative expression levels of mRNA were calculated using the Livak method and normalized to the control. The data was plotted with the coefficient of variance.
(§2) For all gene editing studies from bench to bedside, it is important to employ a functional assay, accompanied by an internal functional control, to assess the efficiency of CRISPR/Cas activity. In this case, NRF2 is a transcription factor that controls the expression of over 200 genes. Thus, NRF2 disruption can be measured functionally through qPCR analysis of NQO1 expression, a keystone gene controlled by NRF2. NQO1 has been used as a standard measure of NRF2 activity in cancer cells^40. We also use downstream targets HMOX1 and GCLC, two major antioxidant enzymes, to assess NRF2 function.

NRF2 gene = NRF2 gene editing (indel/frameshift) analysis by NGS and CRISPResso2 in KYSE-410 cells; type: cell-based, Human; conditions: for gene editing activity (indel profiles): seventy-two hours post-transfection; for knocking out NRF2 (DNA sequence data): exon 4
Method: The NRF2 gene-coding sequence was entered into SnapGene and the following gRNAs were selected for targeting exon 2: (sg3) 5′-[…]-3′ (SEQ ID NO:75); as well as two gRNAs targeting Exon 4: (sg76) 5′-[…]-3′ (SEQ ID NO:16), (sg83) 5′-[…]-3′ (SEQ ID NO:24). Based on the gRNA design, synthetic single gRNAs were ordered from Synthego (Menlo Park, California, USA). CleanCap® Cas9 mRNA (5moU) was ordered from TriLink Biotechnologies (San Diego, CA, USA).
Either one million cells were seeded to a 75 cm^2 tissue culture flask or 2.5 million cells were seeded to a 175 cm^2 tissue culture flask 24 hours prior to transfection and allowed to reach 60-80% confluency. On the day of the transfection, cells were treated with Lipofectamine MessengerMAX reagent (Thermo Fisher Scientific, Waltham, MA) bearing 10 μg or 25 μg of Cas9mRNA and 10 μg or 25 μg of sgRNA, suspended in Opti-MEM, per the manufacturer's instructions. 39 μL or 97.5 μL of MessengerMax lipofectamine reagent was diluted in 1.5 mL or 3.75 mL OPTI-MEM medium and vortexed twice was incubated for ten minutes at room temperature, during which time the culture media was replaced with 15 mL or 25 mL of fresh media, as appropriate to the cell line. A total of 20 μg or 50 μg of RNA was then added to the diluted lipofectamine, consisting of 10 μg or 25 μg Cas9 mRNA and 10 μg or 25 μg sgRNA. The suspension was incubated at room temperature for an additional five minutes before being added, in full, to the tissue culture flask, which was then swirled gently to disperse the reagent. Treated cells were incubated for 72 hours at 37° C. prior to being assayed.
Targeted amplicon libraries were prepared using Illumina's 16S metagenomic sequencing library preparation protocol for MiSeq. Genomic DNA was extracted from cells using the Qiagen's DNeasy Blood & Tissue kit (Quiagen, Hilden, Germany) or QuickExtract reagent (Biosearch Technologies). The region surrounding the CRISPR target site for Exon 2 (398 bp) and Exon 4 (402 bp) of the NRF2 gene were amplified using the 2× Phusion Flash PCR master mix (Thermo Fisher Scientific, Waltham, MA). Post amplification, samples were cleaned using AMPure beads and DNA concentration was measured using the Qubit assay (Thermo Fisher Scientific, Waltham, MA). Samples are also run on TapeStation (Agilent Technologies Santa Clara, CA) to verify the presence of the desired amplicon. The samples were indexed using either the IDT for Illumina DNA/RNA UD indexes set A (Illumina San Diego, CA). Samples were again quantified using Qubit and average library size was calculated using the Tapestation amplicon size. Once pooled to the loading concentration, the libraries were sequenced using the MiSeq Reagent kit v2 (Illumina, San Diego, CA). Only the data that passed data QC in Sequencing Analysis Viewer, was analyzed using CRISPResso2 (CRISPResso2 website) to understand gene editing efficiency and frameshift analysis.

[2] = system: NRF2 downstream target genes (NQO1, HMOX1, GCLC); assay: qPCR gene expression analysis of NRF2 and downstream targets in KYSE-410 cells; type: cell-based, Human; conditions: for NQO1 expression (qPCR): vs wildtype unedited cells, without cisplatin exposure
Method: as §1, §2

T98G cells = assay: Chemosensitivity testing, CellTiter-Glo 2.0, T98G cells; type: cell-based, human; conditions: increasing concentrations of temozolomide and doxorubicin, 72 hr
Source text: FIG. 5A-D: Glioblastoma cells targeting exon 4 of NRF2 and assessment of chemotherapy response. T98G cells (FIG. 5A) and LN229 cells (FIG. 5B) were transfected with each respective gRNA. Genomic DNA from each cell population was isolated and amplified across exon 4 of the NRF2 gene. Amplicons were sanger sequenced and analyzed for indels at the CRISPR target site. Raw sequence files were aligned using the software program, DECODR, to display the indel pattern (listed as INDEL and frameshift %). (FIG. 5C-D) Chemosensitivity Testing in response to NRF2 targeting. Chemosensitivity was measured via CellTiter-Glo® 2.0 Assay. Untargeted and CRISPR targeted T98G cells were treated with increasing concentrations of (FIG. 5C) temozolomide or (FIG. 5D) doxorubicin for 72 hr. and then evaluated for cell viability. The average relative viability of cells normalized to the untreated Wt. was graphed. The error bars represent % CV.
Two human glioblastoma-derived cell lines were used to assess CRISPR activity and downstream effects of NRF2 knockout. FIG. 5 compares targeting exon 4 by two sgRNAs (sg76 (SEQ ID NO:16) and sg83 (SEQ ID NO:24)) and chemosensitivity assessment after targeting in both glioblastoma T98G and LN229 cell lines. Both cell lines were transfected using CRISPRmax lipofection with each respective gRNA and Cas9 mRNA. […]

Row | Substance | expression of NQO1, HMOX1, and GCLC ([1]; 2 week timepoint) | expression of downstream target genes relative to NRF2 levels (ratio) ([1]; 72 hr) | gene editing activity (indel profiles) (NRF2 gene) [%] | NQO1 expression (qPCR) [1] | NQO1 expression (qPCR) [2] | knocking out NRF2 (DNA sequence data) (NRF2 gene) | sensitivity to treatment (T98G cells) | expression of NQO1 and GCLC ([1]; 2 week timepoint, compared to sg3 and sg76) | NQO1 and GCLC expression levels ([1]; 72 hr) | NQO1 and GCLC expression ([2]; vs exon 2 (sg3) or exon 4 (sg76) targeted cells)
1 | sg3: gRNA targeting the DLG motif in exon 2 of NRF2; 5′-TATTTGACTTCAGTCAGCGA-3′ or TGGAGGCAAGATATAGATCT (further chemistry not given here) [reference compound] | increase in expression | do not show a reduction in expression of downstream target genes relative to NRF2 levels | 97 |  |  |  |  |  |  | 
2 | sg76: gRNA targeting exon 4 of NRF2; TCACTTGTTCCTGATATTCC CGG (guide TCACTTGTTCCTGATATTCCCGG; listed as DNA, chemistry not given here) |  | do not show a reduction in expression of downstream target genes relative to NRF2 levels | 97 | significantly decreased | significantly decreased | efficient in knocking out NRF2 at exon 4 | increased sensitivity to treatment |  |  | 
3 | sg83: gRNA targeting exon 4 of NRF2; GTAGCCCCTGTTGATTTAGA CGG (guide GTAGCCCCTGTTGATTTAGACGG; listed as DNA, chemistry not given here) |  |  | 97 | significantly decreased | significantly decreased | efficient in knocking out NRF2 at exon 4 | increased sensitivity to treatment | lower expression of NQO1 and GCLC | diminished | lower levels of NQO1 and GCLC expression
